Test results reported in patent publication US20250186960A1, “BIODEGRADABLE MICROCAPSULES AND A METHOD FOR THEIR PREPARATION” (priority 2022, published 2025).

Assay: Microcapsule fragrance loading quantification via GC
Format: physicochemical
Settings: for Composition 2 (encapsulate wt %): level of the fragrance material in microcapsules of Example 21B; for Composition 2 (oil wt %) / Composition 1 (oil wt %): share of the fragrance material in the encapsulated oil; for Composition 2 (oil wt %): Example 21B; for Composition 1 (encapsulate wt %): level of the fragrance material in microcapsules of Example 21A; for Composition 1 (oil wt %): Example 21A
From the text: Fragrance levels in the microcapsule can be determined by extraction of the fragrance and injection into a GC column. An Agilent 8890 gas chromatograph is used, equipped with a HP-5MS column, and using hydrogen as carrier gas. Quantification is achieved by use of a calibration curve for the given fragrance material diluted in ethanol.
To measure the total level of fragrance in an encapsulate sample, the capsules must first be broken by sonication, for example 1.0 g of encapsulate in 2.0 g of DI water with a Bandelin Sonopuls HD4200 ultrasonicator, equipped with probe TS104 for 1 minute at 30% amplitude (around 1.5 KJ in total). A few drops of aqueous potassium hydroxide solution (10% wt) are added before sonication to raise the pH of the solution above 11. While sonicating, ice is used to keep the temperature below room temperature (20° C.) to avoid any loss of fragrance through evaporation. A microscope is used to check visually if the capsules are fully broken. If not, sonication is repeated. Ethanol is added to the mixture, which is then mixed and centrifuged. The supernatant is collected and retained as the first extraction. The residue is mixed with ethanol again and centrifuged. The supernatant is collected and added to the first extraction. This is then diluted as appropriate and injected into the GC for analysis.
To measure the level of free fragrance in the sample (i.e. the level of un-encapsulated fragrance), the encapsulate slurry is well mixed in DI water and filtered using a sterile cell strainer (40 μm Nylon mesh). The filtrate is diluted with ethanol and injected into the GC for analysis.
The encapsulated fragrance level is the difference between the total fragrance and the free fragrance levels.

| Compound | Composition 2 (encapsulate wt %) | Composition 2 (oil wt %) | Composition 1 (encapsulate wt %) | Composition 1 (oil wt %) |
| --- | --- | --- | --- | --- |
| O=C(OCc1ccccc1)c1ccccc1O [Benzyl salicylate] | 0.66 wt % | 22.5 wt % |  |  |
| OC/C=C/c1ccccc1 [Cinnamic alcohol] |  |  | 0.01 wt % | 0.5 wt % |
| C/C=C/C(=O)C1C(C)C=CCC1(C)C (centres unmarked) [Delta damascone] | 0.53 wt % | 18.1 wt % | 0.54 wt % | 29.5 wt % |
| C=C(C)[C@H]1CC=C(C)CC1 [Dipentene] | 0.63 wt % | 21.5 wt % |  |  |
| CCCCCCCCCCCC#N [dodecane nitrile] |  |  | 0.79 wt % | 43.2 wt % |

Next, values leading:

| Composition 2 (encapsulate wt %) | Composition 2 (oil wt %) | Composition 1 (encapsulate wt %) | Composition 1 (oil wt %) | Compound |
| --- | --- | --- | --- | --- |
| 0.59 wt % | 20.1 wt % |  |  | c1ccc(Oc2ccccc2)cc1 [Diphenyl oxide] |
|  |  | 0.11 wt % | 6.0 wt % | CC(C)=CCC/C(C)=C/CO [Geraniol] |
|  |  | 0.39 wt % | 21.3 wt % | CCC=C(C)C(O)CCCCC (centres unmarked) [Undecavertol] |
| 0.52 wt % | 17.7 wt % |  |  | Ortho tertiary butyl cyclo hexyl acetate |
